{
  "source": "patent US9789078B2",
  "about": "“Method of topically treating actinic keratosis with ingenol mebutate cycle therapy” (LEO Laboratories Limited, priority 2012, dated 2017)",
  "origin": "cited, not measured here",
  "details": "first treatment cycle, cited from earlier work",
  "note": "Like-named read-outs stand apart in the source and are kept apart here.",
  "data": [
    {"smiles": "C/C=C(/C)C(=O)O[C@H]1C(C)=C[C@]23C(=O)[C@@H](C=C(CO)[C@@H](O)[C@]12O)[C@H]1[C@@H](C[C@H]3C)C1(C)C", "note": "[ingenol mebutate]", "values": [
      {"measurement": "time to resolution of local adverse events without sequelae", "setting": "topical application to the face or scalp", "result": "≤ 2", "unit": "weeks"},
      {"measurement": "time to resolution of local adverse events without sequelae", "setting": "topical application to the trunk or extremities", "result": "≤ 4", "unit": "weeks"}
    ]}
  ]
}
